Experiments:
[1] = test system: Sprague-Dawley rats; test: Example 71: toxicity study of luciferase mRNA in rats: weight, electrolytes, hematology, WBC, serum chemistry, liver proteins (Tables 104-110); assay type: in vivo; settings: for Mean weight Gain / Weight Gain: 7 days after administration; for ALP / ALT / AST / Albumin / Basophils (BASO %) / Bicarbonate / CPK / Calcium / Chloride / Eosinophils (EOS %) / Globulin / HCT / HGB / Lymphocytes (LYM %) / MCH / MCV / Monocytes (MON %) / Neutrophil (NEU-SEG %) / Phosphorus / Potassium / RBC / Sodium / Total Protein / WBC / MCHC: after 7 days
Protocol: A control group were administered the formulation buffer (F. Buffer). After 7 days the rats were sacrificed.
The rats were weighed before the administration of mRNA and 7 days after administration. […] Each group analyzed consumed about the same amount of food over the course of the study.
After 7 days the rats were sacrificed and samples were taken to determine electrolytes. The calcium, bicarbonate, potassium, phosphorus, chloride and sodium levels in each group were analyzed.
After 7 days the rats were sacrificed and samples were taken to determine hematology levels. The red blood cell (RBC), hematocrit (HGT), mean corpuscular volume (MCV), hemoglobin (HGB), mean corpuscular hemoglobin (MCH) and mean corpuscular hemoglobin concentration (MCHC) was determined for each group.
After 7 days the rats were sacrificed and samples were taken to determine white blood cell count. Neutrophils (percent segmented neutrophils), monocytes, basophils, lymphocytes, eosinophil and white blood cell (WBC) was determined for each group.
After 7 days the rats were sacrificed and samples were taken to determine serum chemistry. The alkaline phosphatase (ALP), aspartate transaminase (AST), alanine transaminase (ALT) and creatine phosphokinase (CPK) was determined for each group.
After 7 days the rats were sacrificed and samples were taken to determine liver protein levels. The level of albumin, globulin and total protein was determined for each group.
Doses as high as 30 times the effective dose appear to be safe from this analysis.

[2] = test system: peripheral blood mononuclear cells (PBMC); test: Example 46A: percent modification, PBMC G-CSF ELISA (Table 73); assay type: cell-based, human
Protocol: 960 ng of G-CSF mRNA modified with 5-methylcytosine (5mC) and pseudouridine (pseudoU) or unmodified G-CSF mRNA was transfected with 0.8 uL of Lipofectamine 2000 into peripheral blood mononuclear cells (PBMC) from three normal blood donors (D1, D2, D3). […] The supernatant was harvested and run by ELISA 22 hours after transfection to determine the protein expression. The expression of IFN-alpha and TNF-alpha may be a secondary effect from the transfection of the G-CSF mRNA.

With “Luciferase: luciferase mRNA, SEQ ID NO: 14, Cap1, fully modified with 5-methylcytosine and pseudouridine” the “Mean weight Gain” value ([1]; 100 ug) was 16.875 g, the “Weight Gain” value ([1]; 100 ug) was 6.5% and the ALP ([1]; 100 ug) was 144.4 IU/L. The ALT ([1]; 100 ug) was 60.8 IU/L, the AST ([1]; 100 ug) was 198.3 IU/L and the Albumin ([1]; 100 ug) was 3.3 g/dL. For the same substance, the “Basophils (BASO %)” value ([1]; 100 ug) was 0.4%, the Bicarbonate ([1]; 100 ug) was 19.9 mEg/L and the CPK ([1]; 100 ug) was 488.1 IU/L. The Calcium ([1]; 100 ug) was 9.8 mg/dL, the Chloride ([1]; 100 ug) was 101.0 mEg/L and the “Eosinophils (EOS %)” value ([1]; 100 ug) was 1.3%. It also gave a Globulin ([1]; 100 ug) of 2.5 g/dL, an HCT ([1]; 100 ug) of 44.1% and an HGB ([1]; 100 ug) of 14.7 g/dL. For the same substance, the “Lymphocytes (LYM %)” value ([1]; 100 ug) was 85.9%, the MCH ([1]; 100 ug) was 19.5 pg and the MCV ([1]; 100 ug) was 58.7 fL. For the same substance, the “Monocytes (MON %)” value ([1]; 100 ug) was 2.0%, the “Neutrophil (NEU-SEG %)” value ([1]; 100 ug) was 10.6% and the Phosphorus ([1]; 100 ug) was 8.3 mg/dL. It also gave a Potassium ([1]; 100 ug) of 4.7 mEg/L, an RBC ([1]; 100 ug) of 7.5 Million/uL and a Sodium ([1]; 100 ug) of 139.6 mEg/L. For the same substance, the “Total Protein” value ([1]; 100 ug) was 5.8 g/dL, the WBC ([1]; 100 ug) was 14 Thous./uL and the “Mean weight Gain” value ([1]; 300 ug) was 22.125 g. The “Weight Gain” value ([1]; 300 ug) was 8.3%, the ALP ([1]; 300 ug) was 169.5 IU/L and the ALT ([1]; 300 ug) was 49.3 IU/L. For the same substance, the AST ([1]; 300 ug) was 200.3 IU/L, the Albumin ([1]; 300 ug) was 3.2 g/dL and the “Basophils (BASO %)” value ([1]; 300 ug) was 0.4%. For the same substance, the Bicarbonate ([1]; 300 ug) was 23.3 mEg/L, the CPK ([1]; 300 ug) was 968.3 IU/L and the Calcium ([1]; 300 ug) was 9.8 mg/dL. For the same substance, the Chloride ([1]; 300 ug) was 100.5 mEg/L, the “Eosinophils (EOS %)” value ([1]; 300 ug) was 1.0% and the Globulin ([1]; 300 ug) was 2.4 g/dL. The HCT ([1]; 300 ug) was 43.5%, the HGB ([1]; 300 ug) was 14.5 g/dL and the “Lymphocytes (LYM %)” value ([1]; 300 ug) was 83.6%. The MCH ([1]; 300 ug) was 19.8 pg, the MCHC ([1]; 300 ug) was 33.3 g/dL and the MCV ([1]; 300 ug) was 59.6 fL. For the same substance, the “Monocytes (MON %)” value ([1]; 300 ug) was 2.8%, the “Neutrophil (NEU-SEG %)” value ([1]; 300 ug) was 12.0% and the Phosphorus ([1]; 300 ug) was 8.2 mg/dL. The Potassium ([1]; 300 ug) was 4.4 mEg/L, the RBC ([1]; 300 ug) was 7.3 Million/uL and the Sodium ([1]; 300 ug) was 139.6 mEg/L. The “Total Protein” value ([1]; 300 ug) was 5.6 g/dL, the WBC ([1]; 300 ug) was 10.2 Thous./uL and the “Mean weight Gain” value ([1]; 1000 ug) was 19 g. The “Weight Gain” value ([1]; 1000 ug) was 6.95%, the ALP ([1]; 1000 ug) was 150.5 IU/L and the ALT ([1]; 1000 ug) was 51.5 IU/L. The AST ([1]; 1000 ug) was 189.8 IU/L, the Albumin ([1]; 1000 ug) was 3.2 g/dL and the Bicarbonate ([1]; 1000 ug) was 22.5 mEg/L. The CPK ([1]; 1000 ug) was 744 IU/L, the Calcium ([1]; 1000 ug) was 10.6 mg/dL and the Chloride ([1]; 1000 ug) was 101.0 mEg/L. The “Eosinophils (EOS %)” value ([1]; 1000 ug) was 1.5%, the Globulin ([1]; 1000 ug) was 2.7 g/dL and the HCT ([1]; 1000 ug) was 42.5%. The HGB ([1]; 1000 ug) was 14.2 g/dL, the “Lymphocytes (LYM %)” value ([1]; 1000 ug) was 83.0% and the MCH ([1]; 1000 ug) was 19.55 pg. For the same substance, the MCHC ([1]; 1000 ug) was 33.3 g/dL, the MCV ([1]; 1000 ug) was 58.8 fL and the “Monocytes (MON %)” value ([1]; 1000 ug) was 2.3%. For the same substance, the “Neutrophil (NEU-SEG %)” value ([1]; 1000 ug) was 12.8%, the Phosphorus ([1]; 1000 ug) was 9.1 mg/dL and the Potassium ([1]; 1000 ug) was 5.2 mEg/L. The RBC ([1]; 1000 ug) was 7.2 Million/uL, the Sodium ([1]; 1000 ug) was 138.8 mEg/L and the “Total Protein” value ([1]; 1000 ug) was 5.9 g/dL. The WBC ([1]; 1000 ug) was 10.7 Thous./uL, the “Mean weight Gain” value ([1]; 3 × 1000 ug) was 20.375 g and the “Weight Gain” value ([1]; 3 × 1000 ug) was 7.7%. It also gave an ALP ([1]; 3 × 1000 ug) of 152.0 IU/L, an ALT ([1]; 3 × 1000 ug) of 45.9 IU/L and an Albumin ([1]; 3 × 1000 ug) of 3.4 g/dL. For the same substance, the “Basophils (BASO %)” value ([1]; 3 × 1000 ug) was 0.1%, the Bicarbonate ([1]; 3 × 1000 ug) was 22.6 mEg/L and the CPK ([1]; 3 × 1000 ug) was 481.1 IU/L. The Calcium ([1]; 3 × 1000 ug) was 10.2 mg/dL, the Chloride ([1]; 3 × 1000 ug) was 100.4 mEg/L and the “Eosinophils (EOS %)” value ([1]; 3 × 1000 ug) was 0.9%. It also gave a Globulin ([1]; 3 × 1000 ug) of 2.6 g/dL, an HCT ([1]; 3 × 1000 ug) of 43.5% and an HGB ([1]; 3 × 1000 ug) of 14.4 g/dL. For the same substance, the “Lymphocytes (LYM %)” value ([1]; 3 × 1000 ug) was 85.5%, the MCH ([1]; 3 × 1000 ug) was 20.0 pg and the MCHC ([1]; 3 × 1000 ug) was 33.1 g/dL. The MCV ([1]; 3 × 1000 ug) was 60.6 fL, the “Monocytes (MON %)” value ([1]; 3 × 1000 ug) was 2.0% and the “Neutrophil (NEU-SEG %)” value ([1]; 3 × 1000 ug) was 11.6%. It also gave a Phosphorus ([1]; 3 × 1000 ug) of 8.11 mg/dL, a Potassium ([1]; 3 × 1000 ug) of 4.6 mEg/L and an RBC ([1]; 3 × 1000 ug) of 7.2 Million/uL. The Sodium ([1]; 3 × 1000 ug) was 138.8 mEg/L, the “Total Protein” value ([1]; 3 × 1000 ug) was 6.0 g/dL and the WBC ([1]; 3 × 1000 ug) was 10.9 Thous./uL. For the same substance, the “adverse effects of high doses” value ([1]; 7 days) was “do not result in adverse effects”, the “blood count and clotting factors” value ([1]; 7 days) was “no change in blood count or blood clotting factors” and the electrolytes ([1]; 7 days) was “no change in electrolytes”. For the same substance, the “liver enzyme and liver protein production” value ([1]; 7 days) was “no change seen in liver enzyme or liver protein production”, the “weight gain and behaviour” value ([1]; 7 days) was “All animals continued to gain weight and behave normally” and the white blood cells ([1]; 7 days) was “no increase in white blood cells”. The “dose that appears to be safe” value ([1]; rat, in vivo) was 30 times the effective dose, the “histopathology at the site of injection” value ([1]; rat, in vivo) was “only minimal inflammation at the site of injection” and the “G-CSF Expression” value ([2]; PBMC donor D1, 960 ng mRNA) was 14.5 pg/mL. The “G-CSF Expression” value ([2]; PBMC donor D2, 960 ng mRNA) was 3.1 pg/mL and the “G-CSF Expression” value ([2]; PBMC donor D3, 960 ng mRNA) was 10.0 pg/mL.
